ChEMBL document CHEMBL5291721, “A preclinical secondary pharmacology resource illuminates target-adverse drug reaction associations of marketed drugs” (Nat Commun, 2023)

Columns and labels:
Glucocorticoid receptor = target: T1, Glucocorticoid receptor (Homo sapiens, UniProt P04150)
T1 sequence (P04150 whole entry): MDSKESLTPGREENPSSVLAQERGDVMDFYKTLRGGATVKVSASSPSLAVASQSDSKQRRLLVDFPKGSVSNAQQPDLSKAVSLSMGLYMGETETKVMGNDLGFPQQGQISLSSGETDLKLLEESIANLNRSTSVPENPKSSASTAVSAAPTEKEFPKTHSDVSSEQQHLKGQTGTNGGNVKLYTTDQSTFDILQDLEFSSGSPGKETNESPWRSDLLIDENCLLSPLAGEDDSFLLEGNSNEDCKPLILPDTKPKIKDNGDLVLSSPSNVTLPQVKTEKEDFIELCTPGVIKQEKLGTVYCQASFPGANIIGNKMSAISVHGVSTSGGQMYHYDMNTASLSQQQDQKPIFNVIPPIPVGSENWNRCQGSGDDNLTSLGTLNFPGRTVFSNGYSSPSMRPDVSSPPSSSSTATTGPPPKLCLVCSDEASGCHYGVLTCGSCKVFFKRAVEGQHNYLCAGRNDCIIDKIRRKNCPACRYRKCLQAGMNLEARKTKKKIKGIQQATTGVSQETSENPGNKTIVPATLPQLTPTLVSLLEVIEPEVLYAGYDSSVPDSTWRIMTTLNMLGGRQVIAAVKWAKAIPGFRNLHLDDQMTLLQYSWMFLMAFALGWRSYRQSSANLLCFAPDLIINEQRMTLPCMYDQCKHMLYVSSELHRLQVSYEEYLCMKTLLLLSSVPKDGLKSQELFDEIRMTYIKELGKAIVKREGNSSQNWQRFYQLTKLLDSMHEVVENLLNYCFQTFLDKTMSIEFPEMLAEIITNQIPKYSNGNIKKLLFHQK

[1] = target: T2, Neuropeptide Y receptor type 1 (Homo sapiens, UniProt P25929)
T2 sequence (P25929 whole entry): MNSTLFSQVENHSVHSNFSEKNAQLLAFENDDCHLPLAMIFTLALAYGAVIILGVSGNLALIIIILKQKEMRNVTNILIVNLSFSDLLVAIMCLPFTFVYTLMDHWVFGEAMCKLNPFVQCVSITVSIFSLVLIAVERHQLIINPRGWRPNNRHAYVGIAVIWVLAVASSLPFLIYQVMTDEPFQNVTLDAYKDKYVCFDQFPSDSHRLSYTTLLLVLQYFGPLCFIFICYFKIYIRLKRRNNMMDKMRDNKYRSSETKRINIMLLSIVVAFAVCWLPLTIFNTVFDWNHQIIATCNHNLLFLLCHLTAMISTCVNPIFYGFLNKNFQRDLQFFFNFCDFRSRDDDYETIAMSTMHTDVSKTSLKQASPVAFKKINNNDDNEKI

B2 bradykinin receptor = target: T3, B2 bradykinin receptor (Homo sapiens, UniProt P30411)
T3 sequence (P30411 whole entry): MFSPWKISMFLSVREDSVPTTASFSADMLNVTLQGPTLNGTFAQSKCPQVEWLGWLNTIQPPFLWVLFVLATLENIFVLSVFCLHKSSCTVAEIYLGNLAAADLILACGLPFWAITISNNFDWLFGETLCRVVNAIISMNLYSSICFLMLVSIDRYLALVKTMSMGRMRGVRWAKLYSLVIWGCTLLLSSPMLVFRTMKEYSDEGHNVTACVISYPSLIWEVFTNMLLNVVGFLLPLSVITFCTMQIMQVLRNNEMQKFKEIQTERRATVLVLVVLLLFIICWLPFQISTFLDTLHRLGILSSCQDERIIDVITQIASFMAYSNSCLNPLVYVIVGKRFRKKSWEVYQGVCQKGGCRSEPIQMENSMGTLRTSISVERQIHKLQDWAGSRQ

Histamine H1 receptor = Histamine H1 receptor (Homo sapiens, UniProt P35367)
Histamine H3 receptor = Histamine H3 receptor (Homo sapiens, UniProt Q9Y5N1)
Endothelin-1 receptor = target: T4, Endothelin-1 receptor (Homo sapiens, UniProt P25101)
T4 sequence (P25101 whole entry): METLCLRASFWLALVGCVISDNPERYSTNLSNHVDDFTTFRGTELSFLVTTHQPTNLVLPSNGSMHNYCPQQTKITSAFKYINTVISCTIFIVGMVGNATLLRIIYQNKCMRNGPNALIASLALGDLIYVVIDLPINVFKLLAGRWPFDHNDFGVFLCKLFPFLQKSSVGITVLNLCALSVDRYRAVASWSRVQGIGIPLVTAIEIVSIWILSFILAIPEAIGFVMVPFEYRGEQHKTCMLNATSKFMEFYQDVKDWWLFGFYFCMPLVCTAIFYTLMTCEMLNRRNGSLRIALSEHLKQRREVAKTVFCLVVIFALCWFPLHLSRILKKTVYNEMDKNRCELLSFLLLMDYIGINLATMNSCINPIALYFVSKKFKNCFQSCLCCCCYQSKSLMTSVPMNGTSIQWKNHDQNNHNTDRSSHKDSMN

Cannabinoid receptor 1 = Cannabinoid receptor 1 (Homo sapiens, UniProt P21554); assay type: functional, cell-based
Prothrombin = Prothrombin (Homo sapiens, UniProt P00734); assay type: functional
Further: assay procedure not described here.

Histamine H1 receptor, sequence (P35367 whole entry): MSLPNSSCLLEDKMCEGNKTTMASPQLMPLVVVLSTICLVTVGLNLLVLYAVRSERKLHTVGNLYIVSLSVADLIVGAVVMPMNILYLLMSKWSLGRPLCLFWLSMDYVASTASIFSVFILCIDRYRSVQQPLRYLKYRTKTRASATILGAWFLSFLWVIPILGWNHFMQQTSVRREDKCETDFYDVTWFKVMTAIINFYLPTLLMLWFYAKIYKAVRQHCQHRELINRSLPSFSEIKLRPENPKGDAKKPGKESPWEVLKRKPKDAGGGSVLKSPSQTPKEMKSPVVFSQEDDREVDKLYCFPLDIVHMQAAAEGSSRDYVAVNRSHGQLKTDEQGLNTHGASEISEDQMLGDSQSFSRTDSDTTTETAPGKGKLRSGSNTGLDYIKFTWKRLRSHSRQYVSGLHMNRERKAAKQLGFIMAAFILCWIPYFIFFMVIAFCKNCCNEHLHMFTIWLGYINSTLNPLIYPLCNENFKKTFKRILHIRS
Cannabinoid receptor 1, sequence (P21554 whole entry): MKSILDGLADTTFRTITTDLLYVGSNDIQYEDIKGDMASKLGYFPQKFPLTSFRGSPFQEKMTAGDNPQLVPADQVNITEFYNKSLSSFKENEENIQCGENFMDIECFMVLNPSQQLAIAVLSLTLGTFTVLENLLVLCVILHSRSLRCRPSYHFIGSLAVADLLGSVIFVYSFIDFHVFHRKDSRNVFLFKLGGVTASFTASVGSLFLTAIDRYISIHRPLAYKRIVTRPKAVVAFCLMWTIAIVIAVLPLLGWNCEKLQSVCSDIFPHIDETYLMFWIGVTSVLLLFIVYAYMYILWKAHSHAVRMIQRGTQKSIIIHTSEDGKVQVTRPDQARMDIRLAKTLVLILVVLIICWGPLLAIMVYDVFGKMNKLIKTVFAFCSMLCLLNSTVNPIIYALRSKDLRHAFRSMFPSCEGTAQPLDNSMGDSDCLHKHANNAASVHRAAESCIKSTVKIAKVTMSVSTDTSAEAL
Histamine H3 receptor, sequence (Q9Y5N1 whole entry): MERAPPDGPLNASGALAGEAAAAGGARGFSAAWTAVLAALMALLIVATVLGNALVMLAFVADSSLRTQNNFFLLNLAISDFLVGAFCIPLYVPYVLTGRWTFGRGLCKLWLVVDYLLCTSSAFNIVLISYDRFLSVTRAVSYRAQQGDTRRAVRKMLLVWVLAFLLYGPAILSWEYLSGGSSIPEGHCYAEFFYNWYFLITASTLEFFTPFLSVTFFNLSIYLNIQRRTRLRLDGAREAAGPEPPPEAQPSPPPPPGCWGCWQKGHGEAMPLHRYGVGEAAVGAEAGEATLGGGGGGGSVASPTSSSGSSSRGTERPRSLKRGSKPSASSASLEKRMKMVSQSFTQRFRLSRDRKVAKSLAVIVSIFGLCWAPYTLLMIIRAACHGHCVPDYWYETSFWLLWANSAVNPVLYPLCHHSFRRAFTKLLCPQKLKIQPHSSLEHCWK

COC(=O)N[C@H](C(=O)N1CCC[C@H]1c1nc(-c2ccc(-c3ccc(-c4c[nH]c([C@@H]5CCCN5C(=O)[C@@H](NC(=O)OC)C(C)C)n4)cc3)cc2)c[nH]1)C(C)C
AC50 (Glucocorticoid receptor): > 30 µM
AC50 [1]: > 30 µM
AC50 (B2 bradykinin receptor): > 30 µM
AC50 (Histamine H1 receptor): > 30 µM
AC50 (Histamine H3 receptor): > 30 µM
AC50 (Endothelin-1 receptor): > 30 µM

CC(=O)c1ccc2c(c1)N(CCCN1CCN(CCO)CC1)c1ccccc1S2 [ACETOPHENAZINE]
AC50 (Cannabinoid receptor 1): > 30 µM
AC50 (Histamine H1 receptor): 0.049 µM
AC50 (Histamine H3 receptor): 21 µM
AC50 (Endothelin-1 receptor): > 30 µM

CN1CCCC(n2nc(Cc3ccc(Cl)cc3)c3ccccc3c2=O)CC1 (stereo not drawn) [AZELASTINE]
AC50 (Cannabinoid receptor 1): > 30 µM
AC50 (Histamine H3 receptor): 16 µM
AC50 (Endothelin-1 receptor): > 30 µM

O=C1c2c(O)c(=O)ccn2N([C@@H]2c3ccccc3SCc3c2ccc(F)c3F)[C@@H]2COCCN12 [BALOXAVIR]
AC50 (Prothrombin): > 30 µM

C(=N\NC1=NCCN1)/c1c2ccccc2c(/C=N/NC2=NCCN2)c2ccccc12 [BISANTRENE]
AC50 (Prothrombin): > 30 µM

N[C@@H](C(=O)N[C@@H]1C(=O)N2C(C(=O)O)=C(Cl)CS[C@H]12)c1ccccc1 [CEFACLOR ANHYDROUS]
AC50 (Glucocorticoid receptor): > 30 µM
AC50 (Cannabinoid receptor 1): > 30 µM
AC50 [1]: > 30 µM
AC50 (B2 bradykinin receptor): > 30 µM
AC50 (Histamine H1 receptor): > 30 µM
AC50 (Histamine H3 receptor): > 30 µM
AC50 (Endothelin-1 receptor): > 30 µM

CCO/N=C(\C(=O)N[C@@H]1C(=O)N2C(C(=O)[O-])=C(Sc3nc(-c4cc[n+](C)cc4)cs3)CS[C@H]12)c1nsc(N)n1 [CEFTAROLINE]
AC50 (Prothrombin): > 30 µM

Cc1cc(O)cc(C)c1Cl [CHLOROXYLENOL]
AC50 (Prothrombin): > 30 µM

CC(=O)OCC(=O)[C@@]1(O)CC[C@H]2[C@@H]3CCC4=CC(=O)CC[C@]4(C)[C@H]3C(=O)C[C@@]21C [CORTISONE ACETATE]
AC50 (Cannabinoid receptor 1): > 30 µM
AC50 (Prothrombin): > 30 µM

C[N+](C)(C)CCCCCCCCCC[N+](C)(C)C [DECAMETHONIUM]
AC50 (Prothrombin): > 30 µM

O=C1c2ccccc2C(=O)C1C(=O)C(c1ccccc1)c1ccccc1 [DIPHENADIONE]
AC50 (Prothrombin): > 30 µM

CCC(=O)O[C@H]1[C@H](O[C@@H]2[C@@H](C)[C@H](O[C@H]3C[C@@](C)(OC)[C@@H](O)[C@H](C)O3)[C@@H](C)C(=O)O[C@H](CC)[C@@](C)(O)[C@H](O)[C@@H](C)C(=O)[C@H](C)C[C@@]2(C)O)O[C@H](C)C[C@@H]1N(C)C [ERYTHROMYCIN PROPIONATE]
AC50 (Prothrombin): > 30 µM

CCOC(=O)c1ccc(O)cc1 [ETHYLPARABEN]
AC50 (Prothrombin): > 30 µM

O=C1[C@H](CC[C@H](O)c2ccc(F)cc2)[C@@H](c2ccc(O)cc2)N1c1ccc(F)cc1 [EZETIMIBE]
AC50 (Prothrombin): > 30 µM

O=C(COc1ccc(Cl)cc1)N1CCN(Cc2ccc3c(c2)OCO3)CC1 [FIPEXIDE]
AC50 (Prothrombin): > 30 µM

Cc1c(-c2ccccc2)oc2c(C(=O)OCCN3CCCCC3)cccc2c1=O [FLAVOXATE]
AC50 (Prothrombin): > 30 µM

CCC(=O)c1c(O)cc(O)cc1O [FLOPROPIONE]
AC50 (Prothrombin): > 30 µM

CC1(C)O[C@@H]2C[C@H]3[C@@H]4C[C@H](F)C5=CC(=O)CC[C@]5(C)[C@H]4[C@@H](O)C[C@]3(C)[C@]2(C(=O)CO)O1 [FLURANDRENOLIDE]
AC50 (Prothrombin): > 30 µM

COc1ccc2c(c1)C(=O)N(CCc1ccc(S(=O)(=O)NC(=O)NC3CCCCC3)cc1)C(=O)C2(C)C [GLIQUIDONE]
AC50 (Glucocorticoid receptor): > 30 µM
AC50 [1]: > 30 µM
AC50 (B2 bradykinin receptor): > 30 µM
AC50 (Histamine H1 receptor): > 30 µM
AC50 (Histamine H3 receptor): > 30 µM
AC50 (Endothelin-1 receptor): > 30 µM

CC(C)Cc1ccc(CC(=O)O)cc1 [IBUFENAC]
AC50 (Cannabinoid receptor 1): > 30 µM
AC50 (Histamine H1 receptor): > 30 µM
AC50 (Histamine H3 receptor): > 30 µM
AC50 (Endothelin-1 receptor): > 30 µM

CC(C)NNC(=O)c1ccncc1 [IPRONIAZID]
AC50 (Cannabinoid receptor 1): > 30 µM
AC50 (Histamine H3 receptor): > 30 µM
AC50 (Endothelin-1 receptor): > 30 µM
